From patent US20230158025A1 (UNIVERSITY OF UTAH RESEARCH FOUNDATION, priority 2020, published 2023)
Like-named read-outs stand apart in the source and are kept apart here.

Tests used:
recombinant mouse GALK1 = recombinant mouse GALK1 (Mus musculus, UniProt Q9R0N0); test: mGALK1 biochemical activity assay (Kinase-Glo Plus, ATP depletion)
Description: In vitro hGALK1 activity assays were performed as previously described. Liu et al., Bioorg. […] The biochemical assay was performed by coupling the activity of recombinant human or mouse GALK1 to the Kinase-Glo Plus luminescent ATP detection kit, using ATP depletion as a measure of GALK1 turnover. […] One μL/well of GALK-galactose solution (5 nM GALK1, 100 μM galactose) in assay buffer was then added, yielding a final reaction volume of 4 μL/well. Following a 1-hour room temperature incubation, 4 μL of Kinase-Glo Plus detection reagent was added to provide an ATP-dependent luminescent readout (final assay volume: 8 μL/well).

recombinant human GALK1 = recombinant human GALK1 (Homo sapiens, UniProt P51570); test: hGALK1 biochemical activity assay (Kinase-Glo Plus, ATP depletion)
Description: In vitro hGALK1 activity assays were performed as previously described. Liu et al., Bioorg. Med. Chem. Lett. 25(3): 721-727 (2015), which is incorporated by reference herein for the specific teachings thereof. The biochemical assay was performed by coupling the activity of recombinant human or mouse GALK1 to the Kinase-Glo Plus luminescent ATP detection kit, using ATP depletion as a measure of GALK1 turnover. Specifically, three μL/well of ATP substrate solution (35 μM ATP) in assay buffer (20 mM HEPES pH 8.0, 5 mM MgCl2, 60 mM NaCl, 1 mM DTT, 0.01% BSA final concentration) was dispensed into 1536-well assay plates (Greiner, white solid-bottom medium-binding plates). Aliquots of compound (23 nL solubilized in DMSO) were transferred to the assay plates using a Kalypsys 1536-well pintool such that 11 concentrations with 1/3 dilutions ranging from 57.4 μM-0.97 nM are tested. One μL/well of GALK-galactose solution (5 nM GALK1, 100 μM galactose) in assay buffer was then added, yielding a final reaction volume of 4 μL/well. Following a 1-hour room temperature incubation, 4 μL of Kinase-Glo Plus detection reagent was added to provide an ATP-dependent luminescent readout (final assay volume: 8 μL/well).

[1] = rat microsomal stability (RLM)
[2] = aqueous kinetic solubility; settings: aqueous kinetic solubility
[3] = Tables 2-15, 35 μM ATP, 100 μM galactose, 1 h, bracketed figure after some values is undefined and not reported, read-out: mGALK IC50
[4] = recombinant mouse GALK1, Kinase-Glo Plus ATP depletion, read-out: mGALK
[5] = Tables 2-15, 35 μM ATP, 100 μM galactose, 1 h, bracketed figure after some values (e.g. −1.2) is undefined and not reported, read-out: hGALK IC50
[6] = recombinant human GALK1, Kinase-Glo Plus ATP depletion, read-out: hGALK

Sequence of recombinant mouse GALK1 (Q9R0N0 whole entry): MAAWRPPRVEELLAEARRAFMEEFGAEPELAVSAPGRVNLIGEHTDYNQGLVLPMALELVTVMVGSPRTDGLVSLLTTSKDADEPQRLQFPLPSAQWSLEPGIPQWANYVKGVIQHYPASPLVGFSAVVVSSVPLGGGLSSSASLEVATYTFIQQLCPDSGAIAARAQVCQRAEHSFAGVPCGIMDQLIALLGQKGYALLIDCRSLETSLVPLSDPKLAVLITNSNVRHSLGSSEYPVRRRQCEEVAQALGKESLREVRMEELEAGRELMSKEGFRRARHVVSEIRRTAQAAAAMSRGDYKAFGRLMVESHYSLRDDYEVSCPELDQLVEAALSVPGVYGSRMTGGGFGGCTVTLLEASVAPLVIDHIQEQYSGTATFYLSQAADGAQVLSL
Sequence of recombinant human GALK1 (P51570 whole entry): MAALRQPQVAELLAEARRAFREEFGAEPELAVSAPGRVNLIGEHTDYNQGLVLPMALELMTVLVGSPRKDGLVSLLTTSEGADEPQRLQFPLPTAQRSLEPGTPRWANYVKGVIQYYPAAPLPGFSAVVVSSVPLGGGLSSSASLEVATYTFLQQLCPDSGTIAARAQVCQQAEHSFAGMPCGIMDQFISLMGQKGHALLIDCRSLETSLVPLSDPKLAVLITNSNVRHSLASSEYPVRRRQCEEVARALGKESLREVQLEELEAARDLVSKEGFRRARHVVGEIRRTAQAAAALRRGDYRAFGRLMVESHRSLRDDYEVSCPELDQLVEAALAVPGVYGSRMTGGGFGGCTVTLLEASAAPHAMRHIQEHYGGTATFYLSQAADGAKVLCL

Row | Compound | IC50 (recombinant mouse GALK1; [3]) [µM] | IC50 (recombinant mouse GALK1; [4]) [µM] | IC50 (recombinant human GALK1; [5]) [µM] | IC50 (recombinant human GALK1; [6]) [µM] | further results
1 | CC1=C(C(=O)Nc2cc(C(=O)O)ccn2)[C@H](c2ccccc2Cl)N=C(Nc2nc3cccc(N)c3o2)N1 [Compound 24, (R)-2-(2-((7-aminobenzo[d]oxazol-2-yl)amino)-4-(2-chlorophenyl)-6-methyl-1,4-dihydropyrimidine-5-carboxamido)isonicotinic acid] | 1.72 | 1.72 | 0.08 | 0.86 | 
2 | CC1=C(C(=O)Nc2cc(C(=O)O)ccc2C)C(c2ccccc2Cl)N=C(Nc2nc3ccc(F)cc3o2)N1 (stereo not drawn) [Compound 28, 3-(4-(2-chlorophenyl)-2-((6-fluorobenzo[d]oxazol-2-yl)amino)-6-methyl-1,4-dihydropyrimidine-5-carboxamido)-4-methylbenzoic acid] |  | 17.2 |  | 3.43 | 
3 | COC(=O)c1ccnc(NC(=O)C2=C(C)NC(Nc3nc4ccc(F)cc4o3)=N[C@H]2c2ccccc2Cl)c1 [Compound 31, (R)-methyl 2-(4-(2-chlorophenyl)-2-((6-fluorobenzo[d]oxazol-2-yl)amino)-6-methyl-1,4-dihydropyrimidine-5-carboxamido)isonicotinate] |  | 4.32 |  | 3.06 | Metab. Stabil. (m) ([1]; microsomal half-life): 30.91 m; Perm. (1 × 10^−6 cm/sec) (PAMPA permeability): <21.9 1 × 10^−6 cm/sec
4 | COC(=O)c1ccnc(NC(=O)C2=C(C)NC(Nc3nc4ccc(F)cc4o3)=N[C@@H]2c2ccccc2Cl)c1 [Compound 32, (S)-methyl 2-(4-(2-chlorophenyl)-2-((6-fluorobenzo[d]oxazol-2-yl)amino)-6-methyl-1,4-dihydropyrimidine-5-carboxamido)isonicotinate] |  | 86.3 |  | 12.2 | Metab. Stabil. (m) ([1]; microsomal half-life): 24.28 m; Perm. (1 × 10^−6 cm/sec) (PAMPA permeability): <7.4 1 × 10^−6 cm/sec
5 | CC1=C(C(=O)NCc2cn(C)cn2)C(c2ccccc2Cl)N=C(Nc2nc3ccc(F)cc3o2)N1 (stereo not drawn) [Compound 34, 4-(2-chlorophenyl)-2-((6-fluorobenzo[d]oxazol-2-yl)amino)-6-methyl-N-((1-methyl-1H-imidazol-4-yl)methyl)-1,4-dihydropyrimidine-5-carboxamide] |  | 19.3 |  | 8.63 | 
6 | CC1=C(C(=O)Nc2ccc(-c3nn[nH]n3)cn2)C(c2ccccc2Cl)N=C(Nc2nc3ccc(F)cc3o2)N1 (stereo not drawn) [Compound 35, N-(5-(2H-tetrazol-5-yl)pyridin-2-yl)-4-(2-chlorophenyl)-2-((6-fluorobenzo[d]oxazol-2-yl)amino)-6-methyl-1,4-dihydropyrimidine-5-carboxamide] |  | 12.2 |  | 4.85 | 
7 | CC1=C(C(=O)Nc2ccc(C(N)=O)cn2)C(c2ccccc2Cl)N=C(Nc2nc3ccc(F)cc3o2)N1 (stereo not drawn) [Compound 36, N-(5-carbamoylpyridin-2-yl)-4-(2-chlorophenyl)-2-((6-fluorobenzo[d]oxazol-2-yl)amino)-6-methyl-1,4-dihydropyrimidine-5-carboxamide] |  | 6.85 |  | 2.43 | 
8 | COc1ccc([C@@H]2N=C(Nc3nc4ccc(F)cc4o3)NC(C)=C2C(=O)Nc2cc(C(=O)O)ccn2)c(Cl)c1 [Compound 53, (R)-2-(4-(2-chloro-4-methoxyphenyl)-2-((6-fluorobenzo[d]oxazol-2-yl)amino)-6-methyl-1,4-dihydropyrimidine-5-carboxamido)isonicotinic acid] | 1.99 | 1.99 | 0.25 | 0.25 | 
9 | COc1ccc([C@H]2N=C(Nc3nc4ccc(F)cc4o3)NC(C)=C2C(=O)Nc2cc(C(=O)O)ccn2)c(Cl)c1 [Compound 54, (S)-2-(4-(2-chloro-4-methoxyphenyl)-2-((6-fluorobenzo[d]oxazol-2-yl)amino)-6-methyl-1,4-dihydropyrimidine-5-carboxamido)isonicotinic acid] | 19.3 | 19.3 | 4.84 | 4.85 | 
10 | CCn1cc(CNC(=O)C2=C(C)NC(Nc3nc4cccc(N)c4o3)=NC2c2ccc(F)cc2Cl)cn1 (stereo not drawn) [Compound 118, 2-((7-aminobenzo[d]oxazol-2-yl)amino)-4-(2-chloro-4-fluorophenyl)-N-((1-ethyl-1H-pyrazol-4-yl)methyl)-6-methyl-1,4-dihydropyrimidine-5-carboxamide] |  | 7.69 |  | 0.76 | Metab. Stabil. (m) ([1]; microsomal stability half-life): 18.81 m; Perm. (1 × 10^−6 cm/sec) (PAMPA permeability; PAMPA): 188.9 1 × 10^−6 cm/sec
11 | COC(=O)c1ccccc1NC(=O)C1=C(C)NC(Nc2nc3ccccc3o2)=NC1c1ccccc1Cl (stereo not drawn) [Compound 146] |  |  |  |  | mGALK IC50 (recombinant mouse GALK1; Tables 2-15, 35 μM ATP, 100 μM galactose, 1 h, bracketed figure after some values is undefined and not reported): inactive; mGALK (μM) (recombinant mouse GALK1; recombinant mouse GALK1, Kinase-Glo Plus ATP depletion): in- active; hGALK IC50 (recombinant human GALK1; Tables 2-15, 35 μM ATP, 100 μM galactose, 1 h, bracketed figure after some values (e.g. −1.2) is undefined and not reported): inactive; hGALK (μM) (recombinant human GALK1; recombinant human GALK1, Kinase-Glo Plus ATP depletion): in- active
12 | CC1=C(C(=O)Nc2ccccc2C(=O)O)C(c2ccccc2Cl)N=C(Nc2nc3ccccc3o2)N1 (stereo not drawn) [Compound 159, 2-(2-(benzo[d]oxazol-2-ylamino)-4-(2-chlorophenyl)-6-methyl-1,4-dihydropyrimidine-5-carboxamido)benzoic acid] |  |  |  | 34.4 | 
13 | CC1=C(C(=O)Nc2ccc(O)cc2)C(c2ccccc2Cl)N=C(Nc2nc3ccccc3o2)N1 (stereo not drawn) [Compound 162, 2-(benzo[d]oxazol-2-ylamino)-N-(4-hydroxyphenyl)-4-(2-chlorophenyl)-6-methyl-1,4-dihydropyrimidine-5-carboxamide] | 9.68 | 9.68 |  | 3.85 | Metab. Stabil. (m) ([1]; microsomal stability half-life): >30 m; Perm. (1 × 10^−6 cm/sec) (PAMPA permeability; PAMPA): <14.5 1 × 10^−6 cm/sec
14 | COC(=O)Cc1nnc(NC(=O)C2=C(C)NC(Nc3nc4ccccc4o3)=NC2c2ccccc2Cl)s1 (stereo not drawn) [Compound 174, methyl 2-(5-(2-(benzo[d]oxazol-2-ylamino)-4-(2-chlorophenyl)-6-methyl-1,4-dihydropyrimidine-5-carboxamido)-1,3,4-thiadiazol-2-yl)acetate] |  |  | 6.11 | 6.11 | Sol. [2]: <1 µg/mL; Metab. Stabil. (m) ([1]; microsomal stability half-life): 8.0854 m
15 | CC1=C(C(=O)Nc2ccc(-c3cn[nH]c3)cc2)C(c2ccccc2Cl)N=C(Nc2nc3ccccc3o2)N1 (stereo not drawn) [Compound 179, N-(4-(1H-pyrazol-4-yl)phenyl)-2-(benzo[d]oxazol-2-ylamino)-4-(2-chlorophenyl)-6-methyl-1,4-dihydropyrimidine-5-carboxamide] | 12.2 | 12.2 | 6.85 | 6.85 | 
16 | CC1=C(C(=O)Nc2ccc(-n3cncn3)cc2)C(c2ccccc2Cl)N=C(Nc2nc3ccccc3o2)N1 (stereo not drawn) [Compound 191, N-(4-(1H-1,2,4-triazol-1-yl)phenyl)-2-(benzo[d]oxazol-2-ylamino)-4-(2-chlorophenyl)-6-methyl-1,4-dihydropyrimidine-5-carboxamide] | 34.3 | 34.3 | 24.3 | 24.3 | 
17 | CC1=C(C(=O)Nc2nc(C(=O)O)cs2)C(c2ccccc2Cl)N=C(Nc2nc3ccccc3o2)N1 (stereo not drawn) [Compound 200, 2-(2-(benzo[d]oxazol-2-ylamino)-4-(2-chlorophenyl)-6-methyl-1,4-dihydropyrimidine-5-carboxamido)thiazole-4-carboxylic acid] | 19.3 | 19.3 | 9.68 | 9.68 | 
18 | CC1=C(C(=O)Nc2cccc(CCO)c2)C(c2ccccc2Cl)N=C(Nc2nc3ccccc3o2)N1 (stereo not drawn) [Compound 201, 2-(benzo[d]oxazol-2-ylamino)-4-(2-chlorophenyl)-N-(3-(2-hydroxyethyl)phenyl)-6-methyl-1,4-dihydropyrimidine-5-carboxamide] |  |  | 17.2 | 17.2 | Metab. Stabil. (m) ([1]; microsomal stability half-life): 26.59 m
19 | CC1=C(C(=O)NCc2ccccc2O)C(c2ccccc2Cl)N=C(Nc2nc3ccccc3o2)N1 (stereo not drawn) [Compound 219, 2-(benzo[d]oxazol-2-ylamino)-4-(2-chlorophenyl)-N-(2-hydroxybenzyl)-6-methyl-1,4-dihydropyrimidine-5-carboxamide] | 10.9 | 10.9 | 6.85 |  | Metab. Stabil. (m) ([1]; microsomal stability half-life): 5.188 m; Perm. (1 × 10^−6 cm/sec) (PAMPA permeability; PAMPA): <19.3 1 × 10^−6 cm/sec
